# Measured values: PMC6337650 (Molecules, 2018)
# Where two headings read alike, the source gives them in different places.
# What was measured:
# L02 cells = assay: MTT assay on normal liver cells L02; format: cell-based; details: Homo sapiens
# Method: The antiproliferative activity of the target compounds against a normal L02 cell line and the three different human cancer cell lines viz. colorectal (HCT-116), liver (BEL-7402) and liver (HepG2) were evaluated using a standard MTT-based colorimetric assay. All cell lines were obtained from the Key Laboratory of Natural Resources and Functional Molecules of the Changbai Mountain (Yanbian University, Jilin, China) and maintained in Dulbecco’s modified Eagle’s medium (DMEM) and RPMI Media 1640 (RPMI1640), supplemented with 10% fetal bovine serum (FBS) at 37 °C in a humidified atmosphere containing 5% CO2.
# Cells were plated in 96-well plates at appropriate densities to ensure exponential growth throughout the experimental period (9 × 10^3 cells per well) and then allowed to adhere for 24 h. Cells were then treated for 48 h with four serial concentrations (1, 10, 50 and 100 µM) of each compound. […] After 48 h of incubation, 10 µL of MTT solution was added to each well to a final concentration of 2 mg/mL. Plates were then incubated for a further 4 h. After incubation, the MTT solution was removed and 150 µL of DMSO was added to each well for coloration. The plates were shaken vigorously for 10 min at room temperature to ensure complete solubilization. The optical density (OD) was read on a microplate reader (ELx800, BioTek, Highland Park, Winooski, VT, USA) at a wavelength of 492 nm and the data were subsequently analyzed. The percentage of cell growth inhibition was calculated from the following equation: Inhibitory rate (%) = [(1 − (ODtreated-ODblank)/(ODcontrol-ODblank)] × 100.(1)
# HepG2 cells = assay: MTT antiproliferative assay, HepG2; format: cell-based, human
# Method in brief: (§1)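 Cells seeded at 9 × 10^3 per well, allowed 24 h to adhere, then exposed 48 h to compound at 1, 10, 50 and 100 µM. MTT added to 2 mg/mL for 4 h, formazan dissolved in DMSO, OD read at 492 nm; inhibition calculated relative to untreated and blank wells.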
# [1] = MTT antiproliferative assay, HepG2; format: cell-based, human; details: human, HepG2 liver cancer cells versus normal L02 cells; HepG2 vs L02
# Method in brief: as §1
# Cyclin B1 = assay: Western blot, cyclin B1 in HCT-116 cells; format: cell-based, human; details: HCT-116, 5, 10 and 15 μM, 24 h, concentration-dependent
# Method: (§2) HCT-116 cells were cultured with different concentrations of compound 5d for 24 h. Then, the floating cells was collected and washed two times with ice cold PBS. The pellet was resuspended in lysis buffer. After the cells were lysed on ice for 20 min, lysates were centrifuged at 12,000 rpm at 4 °C for 15 min. The protein concentration in the supernatant was determined using BCA protein assay reagents. Equal amounts of protein (50 μg) were resolved using sodium dodecyl sulphate-polyacrylamide gel electrophoresis (SDS-PAGE) (8−12% acrylamide gels) and transferred to a PVDF Hybond-P membrane. Membranes were blocked with PBS containing 5% non-fat milk for 1 h at room temperature. Membranes were then incubated with primary antibodies against Cyclin A (ENT1167, Elabscience, Wuhan, China), Cyclin E1 (ENT1176, Elabscience, Wuhan, China), Cyclin B1 (ENT1169, Elabscience, Wuhan, China) and β-actin (ENM0028, Elabscience, Wuhan, China), with gentle rotation overnight at 4 °C. Membranes were next incubated with fluorescent secondary antibodies for 2 h. Proteins were detected by electrochemiluminescence (Bio-Rad, Hercules, CA, USA).
# Cyclin E1 = assay: Western blot, cyclin E1 in HCT-116 cells; format: cell-based, human; details: HCT-116, 5, 10 and 15 μM, 24 h, concentration-dependent
# Method: as §2
# HCT-116 cells [2] = assay: Cell cycle analysis by flow cytometry (PI); format: cell-based, human; details: 24 h; for proportion of cells in the S phase: control 18.64%; for proportion of cells in the G1 phase: control 70.67%
# Method: HCT-116 cells were plated in 6-well plates (5.0 × 10^5 cells per well) and incubated at 37 °C for 24 h. Exponentially growing cells were then incubated with compound 5d at 5 and 15 µM. After 24 h, untreated cells (control) or cells treated with compound 5d were centrifuged at 1000 rpm for 10 min and then fixed in 70% ethanol at −20 °C for at least 24 h. The cells were subsequently resuspended in phosphate-buffered saline (PBS) containing 0.1 mg/mL of RNase A and 5 µg/mL propidium iodide (PI). The cellular DNA content for the cell cycle distribution analysis was measured by flow cytometry using a FACSCalibur flow cytometer with Cell Quest software (Becton-Dickinson, Franklin Lakes, NJ, USA), plotting at least 30,000 events per sample. The percentage of cells in the G1, S and G2 phases of the cell cycle were determined using the ModFit LT version 4.0 software package (Verity Software, Topsham, ME, USA).
# [3] = MTT antiproliferative assay, BEL-7402; format: cell-based, human; details: human, BEL-7402 liver cancer cells versus normal L02 cells; BEL-7402 vs L02
# Method in brief: as §1
# HCT-116 cells [4] = assay: Colony formation assay; format: cell-based; details: Homo sapiens, HCT-116, 168 h, 7 days, read-out: inhibition rate of colony formation
# Method: Exponentially growing determined HCT-116 cells (6 × 10^2 per well) were plated in 6-well plates with the Roswell Park Memorial Institute (RPMI) 1640 culture medium (Gibco, USA) containing with 10% fetal bovine serum (FBS) (Gibco, Waltham, MA, USA). After an overnight incubation, the culture medium was removed and replaced fresh medium. Then, the cells were treated with various concentrations of compound 5d (5, 10 and 15 μM) dissolved in DMSO. Some cells were treated with DMSO only as a negative control. The cells were then incubated for another 7 days. Finally, the cells were fixed with 4% paraformaldehyde for 30 min and stained with 0.1% crystal violet for 15 min at room temperature, after which, the staining was washed with PBS until the colonies were totally cleared.
smiles,measurement,setting,value
"Cc1ccc(-n2cc(CNC(=O)COC(=O)[C@]3(C)CCC[C@@]4(C)[C@@H]5CC[C@@]6(C)C[C@]5(CC[C@@H]43)CC6=O)nn2)cc1 [Compound 5d, 2-oxo-2-(((1-(p-tolyl)-1H-1,2,3-triazol-4-yl)methyl)amino)ethyl(4R,4aS,6aR,9S,11aR,11bS)-4,9,11b-trimethyl-8-oxotetradecahydro-6a,9-methanocyclohepta[a]naphthalene-4-carboxylate]",IC50,"L02 cells; normal cell line, Table 3, read-out: (IC50, μM) L02",161 ± 1.96 µM
same,IC50,"L02 cells; normal liver cells, 48 h, MTT, Table 2, read-out: IC50 Values (μM) L02",> 100 µM
same,inhibition at 100 µM,"HepG2 cells; Homo sapiens, HepG2, 100 μM, 48 h, MTT, mean ± SD, n=3, read-out: % Growth Inhibition at 100 μM HepG2",82.8 ± 0.86%
same,IC50,"HepG2 cells; Homo sapiens, HepG2, 48 h, MTT, mean ± SD, n=3",8.92 ± 0.44 µM
same,Selectivity Index HepG2,HepG2 cells; IC50 on normal cells (L02)/IC50 on cancer cells,18.05
same,fold more active than 5-FU,HepG2 cells; against HepG2 cells,2.6 fold
same,selectivity ratio at 48 h,[1],22
same,cyclin B1 protein level,Cyclin B1,increasing
same,cyclin E1 protein level,Cyclin E1,decreased
same,proportion of cells in the S phase,HCT-116 cells [2]; 5 μM,25.70%
same,proportion of cells in the G1 phase,HCT-116 cells [2]; 5 μM,51.67%
same,proportion of cells in the S phase,HCT-116 cells [2]; 15 μM,42.31%
same,proportion of cells in the G1 phase,HCT-116 cells [2]; 15 μM,41.32%
same,selectivity ratio at 48 h,[3],11.2
same,inhibition at 15 µM,HCT-116 cells [4],84%
